Test system: his-tag integrins
Assay: Irisin-integrin binding in presence of RGDS or control peptide, co-immunoprecipitation
Set-up: species or system human
Settings: 100 nM flag-tag irisin, 5 nM his-tag integrins, 10 uM peptide, vs control RGD peptide
Experimental: 100 nM flag-tag irisin was incubated with 5 nM of indicated integrins with his-tag in the presence of RGDS peptide or its control peptide (10 uM). This was followed by immunoprecipitation using anti-his-tag agarose. Co-precipitated irisin was analyzed by immunoblot analysis with antibody against flag tag.
Certain materials and methods were used to generate the results described herein. For example, the data shown in FIG. 1A resulted from MLO-Y4 (an osteocyte-like cell line) cells treated with the indicated concentration of irisin and hydrogen peroxide for 4 hours. Cells were stained with Hoechst 33342 (ThermoFisher Scientific, catalog number H3570) and Eth-D1 (ThermoFisher Scientific, catalog number E1169) and analyzed to determine the percentage of cell death using ImageJ. […] Co-precipitated irisin was analyzed by immunoblot analysis against flag tag (Sigma Aldrich, catalog number A8592). The data shown in FIGS. 5A and 5B were generated from MLO-Y4 cells treated and analyzed as in the experiments used to generate the data shown in FIG. 2D, except that pre-treatment of 100 nM RGDS (FIG. 5A) or echistatin (R & D Systems Inc., catalog number 3202/100U) (FIG. 5B) for 10 minutes was performed before irisin treatment. […] Sclerostin mRNA level was analyzed by qPCR (FIG. 7A). […]

For “RGDS peptide: classical integrin competitive inhibitory peptide, commercially available form of the RGD peptide”, the “effect on irisin binding to integrins” value was “inhibited much of the irisin binding” and the “effect on irisin binding to integrins” value (listed as RGDS) was “blocked”.

— patent US20210063414A1, “METHODS FOR PREVENTING AND/OR TREATING BONE LOSS CONDITIONS BY MODULATING IRISIN” (Dana-Farber Cancer Institute, Inc., priority 2018, published 2021)
